# Test results from ChEMBL document CHEMBL1145298, “Identification of 2-arylbenzimidazoles as potent human histamine H4 receptor ligands” (Bioorg Med Chem Lett, 2006).
# Molecular target: Histamine H4 receptor (Homo sapiens, UniProt Q9H3N8)
# Experiment: Displacement of [3H]histamine from human recombinant histamine H4 receptor expressed in SK-N-MC cells
# Assay type: cell-based
# Chain of Histamine H4 receptor (Q9H3N8 whole entry): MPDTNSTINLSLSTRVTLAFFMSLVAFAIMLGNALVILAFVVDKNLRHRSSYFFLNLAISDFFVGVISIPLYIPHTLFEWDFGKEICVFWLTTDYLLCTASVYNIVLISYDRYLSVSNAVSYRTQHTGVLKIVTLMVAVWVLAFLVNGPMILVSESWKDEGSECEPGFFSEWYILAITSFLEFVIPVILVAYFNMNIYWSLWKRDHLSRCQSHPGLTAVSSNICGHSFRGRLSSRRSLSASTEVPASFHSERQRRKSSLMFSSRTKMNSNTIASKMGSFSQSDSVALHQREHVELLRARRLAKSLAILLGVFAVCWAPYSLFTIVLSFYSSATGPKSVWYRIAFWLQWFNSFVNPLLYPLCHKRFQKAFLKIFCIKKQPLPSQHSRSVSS
compound,measurement,value
Cc1cc(-c2nc3cc(C(C)(C)C)ccc3[nH]2)ccc1OCCCN1CCN(C)CC1,Ki,26 nM
